Patent publication US20240408064A1, “RAS INHIBITORS, COMPOSITIONS AND METHODS OF USE THEREOF” (GENETOLEAD INC., priority 2021, published 2024)

Experiments:
HRas^G12V [1] = molecular target: T1, HRas^G12V (Homo sapiens (Human), UniProt P01112, G12V); assay: 19F DLB (ligand-observed 19F NMR) score; assay type: binding; parameters: scale not given here
Experimental: (§1) All NMR experiments were collected using 3 mm NMR tubes on a 600 MHz Bruker Avance III spectrometer equipped with a QCI helium cryoprobe and a SampleJet sample changer. The buffer used for NMR experiments was 25 mM sodium phosphate pH 7.4, 150 mM NaCl, 5 mM MgCl2, 1 mM TCEP-d16, 10% D2O. Data were processed using Bruker TopSpin.
(§2) Since the fragment library was curated using phosphate buffer, 25 mM sodium phosphate pH 7.4, 150 mM NaCl, 5 mM MgCl2, 1 mM TCEP-d16, 10% D2O Fresh TCEP was used for experiments. Screening was performed using ^1H-decoupled 1D ^19F experiment Bruker experiment (zgfhigqn.2) with 64 scans and a relaxation delay of 5 seconds. 50 μM HRas^G12V and 240 μM of each fragment in pools (mixtures) were used.
Hit confirmation was performed using the same ^19F experiment as the screen. Ligand-observed 1D ^1H, protein-observed 1D ^1H, ^1H T2-CPMG as well as Saturation Transfer Difference (STD) experiments were also run on the same samples. Ligand-observed 1D ^1H was run using the standard Bruker sequence with excitation sculpting (zgesgp) with a relaxation delay of 10 seconds and 16 scans per spectrum. Protein-observed 1D ^1H was performed using the same sequence with a relaxation delay of 1 second and 256 scans in order to increase the signal-to-noise of the protein resonances, while keeping the experimental time relatively short. The ^1H T2-CPMG experiment employed a modified version of the Bruker 1D ^1H zgesgp experiment with the addition of a CPMG pulse train after the first 90° excitation pulse. Total duration for each spin echo was fixed at 1 ms (τ=500 μs), while the number of echoes in the pulse train was varied according to the total time (T). The number of scans for each spectrum was 4 and eight delay times were run on each sample, ranging from 1 ms to 800 ms. […]

HRas^G12V [2] = molecular target: T1, HRas^G12V; assay: Overall binding/activity in the various assays (NMR consensus binding)
Experimental: as §2
(§3) Hit confirmation was performed using the same ^19F experiment as the screen. Ligand-observed 1D ^1H, protein-observed 1D ^1H, ^1H T2-CPMG as well as Saturation Transfer Difference (STD) experiments were also run on the same samples. Ligand-observed 1D ^1H was run using the standard Bruker sequence with excitation sculpting (zgesgp) with a relaxation delay of 10 seconds and 16 scans per spectrum. Protein-observed 1D ^1H was performed using the same sequence with a relaxation delay of 1 second and 256 scans in order to increase the signal-to-noise of the protein resonances, while keeping the experimental time relatively short. The ^1H T2-CPMG experiment employed a modified version of the Bruker 1D ^1H zgesgp experiment with the addition of a CPMG pulse train after the first 90° excitation pulse. Total duration for each spin echo was fixed at 1 ms (τ=500 μs), while the number of echoes in the pulse train was varied according to the total time (T). The number of scans for each spectrum was 4 and eight delay times were run on each sample, ranging from 1 ms to 800 ms.
STD experiments consisted of two independent spectra with offsets of 0 ppm (on resonance) and −20 ppm (off resonance). […] 160 scans were acquired for each spectrum.
The results obtained with the compounds in the various assays described above are depicted in Table 21.
Because of its power to probe the intrinsically weak interactions (Kd) between targets and low-molecular weight fragments, NMR fragment-based lead discovery (FBLD) is a very useful biophysical method in early stage drug discovery, especially for challenging target proteins; including those with shallow binding pockets. Since FBLD screens are performed using low-molecular weight compounds (fragments) with lower structural complexity, the same chemical space can be covered using a smaller number of drug-like fragments versus use of large libraries of higher-molecular weight lead-like compounds as in high throughput screening (HTS) campaigns. Therefore, FBLD has a much higher hit rate than HTS using only several hundred to several thousand compounds in comparison with approximately 1 million compounds for HTS. Also, the small size of the compounds screened in FBLD means a better chance to fully match the interactions with small or transient pockets within the target protein, where these less tractable pockets cannot be accessed with standard classical HTS methods. […] We expect this methodology to be more advantageous than classical HTS methods for expediting the time from hit to lead (H2L) and allows for rapid access to high quality leads with lower attrition rates in subsequent lead optimization (LO) campaigns toward pre-clinical candidate selection. FBLD screening by NMR involves a “consensus binding” approach where several distinct NMR experiments (DLB, STD, CPMG) are applied along with a free-state aggregation detection method (T2-CPMG) to rank the compounds for their affinity to the receptor (HRAS in this case) whilst simultaneously monitoring the solution behavior and critical quality attributes of each compound. The latter helps to eliminate artifact binders which are highly problematic. We performed a fluorine screen involving 461 compounds that were derived from a highly curated fragment library. Moreover, two-dimensional ^15N HSQC NMR was also used to validate ligand-binding sites on the target protein. In addition, we employed protein-detected biophysical measurements were employed to determine fragment binding affinities to the target protein (Kd) by HSQC NMR. […]

HRas^G12V [3] = molecular target: T1, HRas^G12V; assay: 19F T2-CPMG NMR score; assay type: binding
Experimental: as §1, §2, §3
Because of its power to probe the intrinsically weak interactions (Kd) between targets and low-molecular weight fragments, NMR fragment-based lead discovery (FBLD) is a very useful biophysical method in early stage drug discovery, especially for challenging target proteins; including those with shallow binding pockets. Since FBLD screens are performed using low-molecular weight compounds (fragments) with lower structural complexity, the same chemical space can be covered using a smaller number of drug-like fragments versus use of large libraries of higher-molecular weight lead-like compounds as in high throughput screening (HTS) campaigns. Therefore, FBLD has a much higher hit rate than HTS using only several hundred to several thousand compounds in comparison with approximately 1 million compounds for HTS. Also, the small size of the compounds screened in FBLD means a better chance to fully match the interactions with small or transient pockets within the target protein, where these less tractable pockets cannot be accessed with standard classical HTS methods. […] We expect this methodology to be more advantageous than classical HTS methods for expediting the time from hit to lead (H2L) and allows for rapid access to high quality leads with lower attrition rates in subsequent lead optimization (LO) campaigns toward pre-clinical candidate selection. FBLD screening by NMR involves a “consensus binding” approach where several distinct NMR experiments (DLB, STD, CPMG) are applied along with a free-state aggregation detection method (T2-CPMG) to rank the compounds for their affinity to the receptor (HRAS in this case) whilst simultaneously monitoring the solution behavior and critical quality attributes of each compound. The latter helps to eliminate artifact binders which are highly problematic. We performed a fluorine screen involving 461 compounds that were derived from a highly curated fragment library. Moreover, two-dimensional ^15N HSQC NMR was also used to validate ligand-binding sites on the target protein. […]

Structure (SMILES) | 19F DLB Score (HRas^G12V [1]) | Activity ranking on HRas^G12V (in words) (HRas^G12V [2]) | Binding to HRas^G12V (in words) (HRas^G12V [2]) | 19F T2-CPMG Score (HRas^G12V [3])
O=C(O)C[C@H](c1ccccc1F)c1c[nH]c2cc(F)ccc12 (single isomer, unassigned) [Compound 11052] | Non conclusive | More active |  | 
COC(=O)c1ccc(NC(=O)Cc2c[nH]c3cc(F)ccc23)cc1Cl [Compound 10017] |  |  | low or no binding | 
CCOC(=O)c1cccc(NC(=O)Cc2c[nH]c3cc(F)ccc23)c1 [Compound 10019] |  |  | low or no binding | 
Cc1c(Cl)cc(NC(=O)Cc2c[nH]c3cc(F)ccc23)cc1Cl [Compound 10022] |  |  | low or no binding | 
Cc1ccc(NC(=O)Cc2c[nH]c3cc(F)ccc23)cc1Cl [Compound 10032] |  |  | low or no binding | 
COc1ccc(NC(=O)Cc2c[nH]c3cc(F)ccc23)cc1OC [Compound 10033] |  |  | low or no binding | 
COc1ccccc1C(=O)NCCc1c[nH]c2cc(F)ccc12 [Compound 10043] |  |  | low or no binding | 
CCOC(=O)C(Cc1c[nH]c2ccccc12)NC(=O)Cc1c[nH]c2cc(F)ccc12 (centres unmarked) [Compound 10112] |  |  | low or no binding | 
CCOC(=O)[C@@H]1CCCN(C(=O)Cc2c[nH]c3cc(F)ccc23)C1 [Compound 10161] | 2.07 |  |  | 7.87
COC(=O)[C@@H]1CN(C)CCN1C(=O)Cc1c[nH]c2cc(F)ccc12 [Compound 10167] | 3.62 |  |  | 5.07
CCC(C(=O)N1CC(C)C1)c1c[nH]c2cc(F)ccc12 (centres unmarked) [Compound 11005] | 3.19 |  |  | 16.59
Fc1ccc2c(C3CCNCC3)c[nH]c2c1 [Compound 11012] | 2.58 |  |  | 13.63
CC(C)(C)OC(=O)N1CCC(C(=O)N2CCC(c3c[nH]c4cc(F)ccc34)CC2)C1 (centres unmarked) [Compound 11017] | 1.86 |  |  | 16.89
O=C(c1ccc(F)cc1F)N1CCC(c2c[nH]c3cc(F)ccc23)C1 (centres unmarked) [Compound 11018] | 2.51 |  |  | 9.96
O=C(C1CCC(O)CC1)N1CCC(c2c[nH]c3cc(F)ccc23)C1 (centres unmarked) [Compound 11019] | 2.2 |  |  | 12.9
CC(=O)Nc1cccc(C(=O)N2CCC(c3c[nH]c4cc(F)ccc34)CC2)c1 [Compound 11020] | 2.23 |  |  | 15.24
O=C(c1ccccc1)N1CCC(c2c[nH]c3cc(F)ccc23)C1 (centres unmarked) [Compound 11021] | 3.35 |  |  | 39.09
O=C(c1cccc(F)c1)N1CCC(c2c[nH]c3cc(F)ccc23)C1 (centres unmarked) [Compound 11022] | 3.43 |  |  | 5.71
CC(=O)Nc1cccc(C(=O)N2CCC(c3c[nH]c4cc(F)ccc34)C2)c1 (centres unmarked) [Compound 11023] | 3.07 |  |  | 16.39

Structure (SMILES) | 19F DLB Score (HRas^G12V [1]) | Activity ranking on HRas^G12V (in words) (HRas^G12V [2]) | Binding to HRas^G12V (in words) (HRas^G12V [2]) | 19F T2-CPMG Score (HRas^G12V [3])
CC(=O)N1CCC(C(=O)N2CCC(c3c[nH]c4cc(F)ccc34)C2)CC1 (centres unmarked) [Compound 11024] | 1.89 |  |  | 9.57
O=C(C1CCC(O)CC1)N1CCC(c2c[nH]c3cc(F)ccc23)CC1 (centres unmarked) [Compound 11027] | 2.48 |  |  | 13.23
CC(=O)N1CCC(C(=O)N2CCC(c3c[nH]c4cc(F)ccc34)CC2)CC1 [Compound 11029] | 1.93 |  |  | 10.24
CN(C)Cc1ccc(NC(=O)C(C#N)c2c[nH]c3cc(F)ccc23)cc1 (centres unmarked) [Compound 11030] | 2.9 |  |  | 21.82
N#CC(C(=O)N[C@@H](Cc1ccc(O)cc1)C(=O)O)c1c[nH]c2cc(F)ccc12 (some centres unmarked) [Compound 11031] | 1.97 |  |  | 38.39
CC1CN(C(=O)C(CC(=O)O)c2c[nH]c3cc(F)ccc23)C1 (centres unmarked) [Compound 11034] | 1.7 |  |  | 39.41
O=C(C1CCNC1)N1CCC(c2c[nH]c3cc(F)ccc23)C1 (centres unmarked) [Compound 11036] | 1.76 |  |  | 19.33
O=C(C1CCCNC1)N1CCC(c2c[nH]c3cc(F)ccc23)C1 (centres unmarked) [Compound 11037] | 2.12 |  |  | 16.77
O=C(O)CC(c1ccccc1F)c1c[nH]c2cc(F)ccc12 (centres unmarked) [Compound 11044] | 2.77 |  |  | 16.24
CCOC(=O)CC(c1ccccc1F)c1c[nH]c2cc(F)ccc12 (centres unmarked) [Compound 11045] | 16.69 |  | low or no binding | 
O=C(C1CCNCC1)N1CCC(c2c[nH]c3cc(F)ccc23)CC1 [Compound 11047] | 2.79 |  |  | 22.81
O=C(O)CC(c1cccc(O)c1)c1c[nH]c2cc(F)ccc12 (centres unmarked) [Compound 11054] | Non conclusive | More active |  | 
CN(C)CC(=O)Nc1cccc(NC(=O)Cc2c[nH]c3cccc(Br)c23)c1 [Compound 11067] |  |  | low or no binding | 
CN(C)CC(=O)Nc1cccc(NC(=O)Cc2c[nH]c3cc(Cl)ccc23)c1 [Compound 11068] |  |  | low or no binding | 
O=C(O)Cc1c[nH]c2c(Cl)cccc12 [Compound 11069] |  |  | low or no binding | 
CN(C)CC(=O)Nc1cccc(NC(=O)Cc2c[nH]c3c(Cl)cccc23)c1 [Compound 11070] |  |  | low or no binding | 
CN(C)CC(=O)Nc1cccc(NC(=O)Cc2c[nH]c3cccc(Cl)c23)c1 [Compound 11071] |  |  | low or no binding | 
CN(C)CCOC1CN(C(=O)Cc2c[nH]c3cc(F)ccc23)C1 [compound 10110] | 2.87 |  |  | 25.25
